Test results from PMC12040169 (PLOS Biology, 2025).

Experiment: in vitro
Settings: human, hela cells, % viability

## O=C(O)c1ccc(-c2n[nH]c(=O)c3ccccc23)cc1 [CBK287148]
  viability at 28.5 h, 10 µM: 108%

## COc1ccc(Br)cc1S(=O)(=O)Nc1cccc(C(=O)Nc2ccc(F)cc2)c1 [CBK038981]
  viability at 28.5 h, 10 µM: 75.4%

## CC1=CCCN(C(=O)C23CCOCC2CN(c2ncccn2)C3)C1 (stereo not shown) [CBK304743]
  viability at 28.5 h, 10 µM: 101%

## Cc1noc(C)c1C(=O)Nc1cnc(-c2ccc(F)cc2)c(-c2ccsc2)n1 [CBK036781]
  viability at 28.5 h, 10 µM: 97.6%

## Clc1ccc(Cl)c(N/N=C(\c2ccccc2)c2cccnc2)c1 [CBK015932C]
  viability at 28.5 h, 10 µM: 96.9%

## CSc1c(C#N)c(-c2cc(C(C)(C)C)on2)nn1C [CBK006360]
  viability at 28.5 h, 10 µM: 96.4%

## COCCN1C(=O)C2(CC(=O)N(CCNS(C)(=O)=O)C2=O)c2cc(C)ccc21 (stereo not shown) [CBK075479]
  viability at 28.5 h, 10 µM: 98.2%

## COc1nc(NCCN2CCOCC2)nc(Nc2ccc(Cl)cc2)n1 [CBK262541]
  viability at 28.5 h, 10 µM: 102%

## O=C(O)CC(NC(=O)OCc1ccccc1)c1ccccc1 (stereo not shown) [CBK265351]
  viability at 28.5 h, 10 µM: 107%

## CC1=CC(C)C2(COC(=O)Nc3ccccc3)COC(c3cccnc3)C1C2C (stereo not shown) [CBK262844]
  viability at 28.5 h, 10 µM: 86.2%

## Cn1cnnc1Sc1cc(N2CCN(S(=O)(=O)c3ccc(Cl)c(Cl)c3)CC2)ccc1[N+](=O)[O-] [CBK266618]
  viability at 28.5 h, 10 µM: 98.3%

## O=C(Nc1cccnc1)c1ccnc(Cl)c1 [CBK089829]
  viability at 28.5 h, 10 µM: 100%

## Cc1ccc(-c2cnc3ccccc3n2)cc1NC(=O)c1ccccc1S(=O)(=O)c1ccc([N+](=O)[O-])cc1 [CBK267690]
  viability at 28.5 h, 10 µM: 110%

## COc1ccc(N2C(=O)/C(=C/c3cc(C)n(-c4ccc(N5CCOCC5)cc4)c3C)C(=O)NC2=S)cc1 [CBK263798]
Bulk resorufin, single well
  viability at 28.5 h, 10 µM: 89.7%

## COc1cc(OCc2ccccc2)ccc1CN1CCN(Cc2ccccc2)CC1 [CBK074766]
  viability at 28.5 h, 10 µM: 88.1%

## Nc1ccn(C2CC(O)C(CO)O2)c(=O)n1 (stereo not shown) [CBK201203]
  viability at 28.5 h, 10 µM: 95.4%

## O=[N+]([O-])c1ccc(O)c(/C=N/c2ccc(Oc3ccc(/N=C/c4cc([N+](=O)[O-])ccc4O)cc3)cc2)c1 [CBK261093]
  viability at 28.5 h, 10 µM: 96.7%

## O=C(NCCO)NC(=S)c1ccccc1 [CBK267213]
  viability at 28.5 h, 10 µM: 95.2%

## c1ccc(CSc2ccc(-c3ccncc3)nn2)nc1 [CBK287638]
  viability at 28.5 h, 10 µM: 101%

## Cc1cc(C)n(CCCC(=O)N2CCC3(CC2)CC(=O)N(C)C3)n1 [CBK306905]
  viability at 28.5 h, 10 µM: 90.5%

## O=C(NC1CCNC1)c1ccc(F)cc1 (stereo not shown) [CBK281632]
  viability at 28.5 h, 10 µM: 87.2%

## c1cnc(OC2CCN(Cc3ccc4c(c3)OCO4)CC2)c(OCCN2CCOCC2)n1 [CBK082925T]
  viability at 28.5 h, 10 µM: 115%

## COc1cc(/C=N/NC(=O)CC#N)ccc1OCc1ccccc1Cl [CBK263932]
  viability at 28.5 h, 10 µM: 84.9%

## c1ccc(SCc2nc(-c3cccnc3)no2)cc1 [CBK266078]
  viability at 28.5 h, 10 µM: 101%

## C[C@@H]1CN(C(=O)c2nccc3ccccc23)C[C@H](C)O1 [CBK200233]
  viability at 28.5 h, 10 µM: 92.8%

## O=C(Nc1cccnc1)C1CCN(C(=O)OCc2ccccc2)CC1 [CBK083187]
  viability at 28.5 h, 10 µM: 90.6%

## COc1ccc(CCC(=O)N2CCCC2c2ccc(Cc3ccccc3F)cn2)cc1 (stereo not shown) [CBK285992]
  viability at 28.5 h, 10 µM: 94.2%

## Cc1cc(COc2nccnc2N2CCN(CCCC#N)CC2)no1 [CBK084198]
  viability at 28.5 h, 10 µM: 93.5%

## O=C(NCc1ccccc1OC1CCNC1)C1CCCO1 (stereo not shown) [CBK024503T]
  viability at 28.5 h, 10 µM: 96.9%

## Cc1cccc(C)c1OCC(=O)Nc1ccc(S(=O)(=O)N2CCOCC2)cc1 [CBK266967]
  viability at 28.5 h, 10 µM: 94.1%

## O=C(Cn1c(C2CCCNC2)cc2cccnc21)N1CCCCCC1 (stereo not shown) [CBK285014]
  viability at 28.5 h, 10 µM: 86.3%

## Cc1csc(CNCc2c(C(C)C)nn(C)c2N(C)C)n1 [CBK305089]
  viability at 28.5 h, 10 µM: 83.7%

## CCc1ccc(S(=O)(=O)N2CCN(C(c3ccccc3)c3ccccc3)CC2)cc1 [CBK093948]
  viability at 28.5 h, 10 µM: 98.6%

## CC(C)(C)Nc1c(C2CCCN(C(=O)C3CC3)C2)nc2ccccn12 (stereo not shown) [CBK284759]
  viability at 28.5 h, 10 µM: 105%

## Nc1ncc(-c2ccccc2CO)nc1NC1CCOCC1 [CBK063799]
  viability at 28.5 h, 10 µM: 98.7%

## Cc1cc(COc2ccnc(N3CCCN(CCCO)CC3)n2)no1 [CBK083917]
  viability at 28.5 h, 10 µM: 98.4%

## Nc1ccc(NC(=O)c2ccc(NC(=O)c3cnc(-c4ccccc4)c(-c4ccncc4)c3)cc2)cc1 [CBK037463]
  viability at 28.5 h, 10 µM: 101%

## Cc1ccc(-c2nnc3sc(-c4cnccn4)nn23)cc1 [CBK268258]
  viability at 28.5 h, 10 µM: 98.9%

## Cc1cc(Cl)ccc1OCC(=O)Nc1ccc(O)cc1C(=O)O [CBK131706]
  viability at 28.5 h, 10 µM: 86%

## O=C(c1cn2cc(-c3cccs3)n(CC3CC3)c(=O)c2n1)N1CCCC1 [CBK306756]
  viability at 28.5 h, 10 µM: 92.8%

## Cc1nn(C)cc1C(C)NC(=O)C1(c2ccccc2F)CCOCC1 (stereo not shown) [CBK281594]
  viability at 28.5 h, 10 µM: 80.8%

## COc1ccc(Cl)cc1S(=O)(=O)NC(C)C(=O)O (stereo not shown) [CBK270233]
  viability at 28.5 h, 10 µM: 106%

## O=C(CCN1C(=O)c2cccc([N+](=O)[O-])c2C1=O)Nc1ccccc1Cl [CBK263121]
  viability at 28.5 h, 10 µM: 91.6%

## CC(C)N(C)C(=O)Cc1csc(N)n1 [CBK014608]
  viability at 28.5 h, 10 µM: 100%

## Cc1cccc(OCC(=O)Nc2ccc(-c3nc4ncccc4o3)cc2C)c1 [CBK269287]
  viability at 28.5 h, 10 µM: 87.3%

## CN1CCC(=NNC(=O)c2ccc(CN(c3ccccc3)S(C)(=O)=O)cc2)CC1 [CBK262728]
  viability at 28.5 h, 10 µM: 97.8%

## Cn1c(SCC(=O)c2ccc([N+](=O)[O-])cc2)nnc1-c1ccc(N)cc1 [CBK264843]
  viability at 28.5 h, 10 µM: 97.9%

## CC(=O)c1ccc(NC(=O)CSc2nnc(-c3ccc4ccccc4n3)s2)cc1 [CBK269205]
  viability at 28.5 h, 10 µM: 97.6%

## NC(=O)CSc1nnc(-c2ccncc2)[nH]1 [CBK026179]
  viability at 28.5 h, 10 µM: 107%

## OC1(Cn2ccc3ncccc32)CCN(CC2CC=CCC2)CC1 (stereo not shown) [CBK284782]
  viability at 28.5 h, 10 µM: 93.6%

## CCc1nc2ccc(C(=O)N3CCN(C)CC3)cn2c1N(C)Cc1ccc(NC(C)=O)cc1 [CBK145603]
  viability at 28.5 h, 10 µM: 87%

## COc1ccc(S(=O)(=O)N(C)CC(=O)Nc2ccc(C(N)=O)cc2)cc1C [CBK267278]
  viability at 28.5 h, 10 µM: 88%

## COc1ccc2[nH]c3c(c2c1)CCNC31CCN(Cc2ccc(S(C)(=O)=O)cc2)CC1 [CBK039753]
  viability at 28.5 h, 10 µM: 88.8%

## Cc1nnc(Sc2cccc(C(F)(F)F)n2)s1 [CBK115222]
  viability at 28.5 h, 10 µM: 95.4%

## O=C(O)c1ccc(S(=O)(=O)N2CCOCC2)cc1 [CBK287201]
  viability at 28.5 h, 10 µM: 82.2%

## COc1ccc(CN(Cc2cccs2)[C@@H]2COC[C@H]2c2ccc(F)cc2)cc1 [CBK286487]
  viability at 28.5 h, 10 µM: 90.6%

## OCCN1CCN(c2ccc(/C=C/c3ccccc3)cn2)CC1 [CBK036849]
  viability at 28.5 h, 10 µM: 89.2%

## COc1ccc(CNC(=O)CSc2nnc(-c3ccncc3)n2C)cc1 [CBK266613]
  viability at 28.5 h, 10 µM: 95%

## O=C(CSc1cc(Cl)ccc1Cl)Nc1cccc(Cl)c1 [CBK263712]
  viability at 28.5 h, 10 µM: 113%

## O=C1N[C@]2(Cc3ccccc31)CN(Cc1ccccc1)C[C@H]2CO [CBK284743]
  viability at 28.5 h, 10 µM: 92.1%

## Nc1ncc(-c2cccnc2)nc1-c1ccc(C(=O)N2CCOCC2)cc1 [CBK064059]
  viability at 28.5 h, 10 µM: 93.4%

## NCC(=O)Nc1ccc(Br)cc1C(=O)c1ccccc1Cl [CBK264692B]
  viability at 28.5 h, 10 µM: 90.5%

## CC1CCc2c(sc(NC(=O)c3ccncc3)c2C(N)=O)C1 (stereo not shown) [CBK288530]
  viability at 28.5 h, 10 µM: 87.8%

## O=C(Nc1cccc(C(=O)O)c1)/C(=C\c1ccco1)NC(=O)c1ccc(Br)cc1 [CBK263707]
  viability at 28.5 h, 10 µM: 91.3%

## Clc1ccccc1-c1nccnc1NCCc1ccncc1 [CBK038055]
  viability at 28.5 h, 10 µM: 98.1%

## COc1ccc(-c2ccc(CNCCCN3CCOCC3)o2)cc1Cl [CBK278312C]
  viability at 28.5 h, 10 µM: 103%

## CCN(CC)CCN1CCN(c2cncc(-c3cccc(/C=C/C(=O)O)c3)n2)CC1 [CBK066097]
  viability at 28.5 h, 10 µM: 96.6%

## O=C(O)CNC(=O)/C(=C\c1ccc(F)cc1)NC(=O)c1ccco1 [CBK263718]
  viability at 28.5 h, 10 µM: 96.4%

## O=C(CCc1c[nH]c2ccccc12)Nc1ccccc1C(=O)O [CBK287242]
  viability at 28.5 h, 10 µM: 108%

## O=C1NCCNC(=O)C2(CCCCOc3ccccc31)CCNCC2 [CBK292074]
  viability at 28.5 h, 10 µM: 108%

## O=C(O)CCN1CCN(S(=O)(=O)c2cccc([N+](=O)[O-])c2)CC1 [CBK268819]
  viability at 28.5 h, 10 µM: 89.7%

## CS(=O)(=O)c1sc(C(=O)O)c2c1C=CCC2 [CBK005513]
  viability at 28.5 h, 10 µM: 87.3%

## CN1C(=O)COc2ccccc2C/C=C/C[C@H]2CN(C(=O)C3CCC3)CC[C@H]21 [CBK292087]
  viability at 28.5 h, 10 µM: 95.1%

## CCCCC(NS(=O)(=O)Cc1ccccc1)C(=O)O (stereo not shown) [CBK286798]
  viability at 28.5 h, 10 µM: 91.1%

## Cc1nn(CCS(C)(=O)=O)c(C)c1CN1CCOC(c2ccccc2)C1 (stereo not shown) [CBK306162]
  viability at 28.5 h, 10 µM: 80.4%

## Clc1ccccc1-c1nccnc1NCc1cccs1 [CBK037362]
  viability at 28.5 h, 10 µM: 98.6%

## Cc1cccc(C)c1NC(=O)CC(C(=O)O)N(C)C (stereo not shown) [CBK267022]
  viability at 28.5 h, 10 µM: 90.9%

## O=C(c1ccc(-c2nccnc2NCc2ccc(C(F)(F)F)cc2)cc1)N1CCOCC1 [CBK036931]
  viability at 28.5 h, 10 µM: 100%

## c1ccc2c(c1)OCC(COc1cncc(OC3CCN(CC4CCCCC4)C3)n1)O2 (stereo not shown) [CBK084387]
  viability at 28.5 h, 10 µM: 109%

## COc1ccc([C@@]23CC[C@@H](NC(=O)Nc4ccc5ccccc5c4)C[C@@H]2N(C)CC3)cc1OC [CBK034181T]
  viability at 28.5 h, 10 µM: 102%

## CC1CCN(Cc2c(C3CCNCC3)[nH]c3ncccc23)CC1 [CBK285022]
  viability at 28.5 h, 10 µM: 91.7%

## Fc1ccc(-c2noc([C@@H]3CCCN3Cc3ncc[nH]3)n2)nc1 [CBK288897]
  viability at 28.5 h, 10 µM: 102%

## Cc1cccc(N2C(=O)c3ccc(C(=O)c4ccc5c(c4)C(=O)N(c4cccc(C)n4)C5=O)cc3C2=O)n1 [CBK263069]
  viability at 28.5 h, 10 µM: 87.8%

## COc1cccc(C(=O)Nc2nc3ccc(F)cc3s2)c1 [CBK287342]
  viability at 28.5 h, 10 µM: 86.9%

## O=C([C@H]1CN2CCC1C[C@@H]2Cn1cc(COc2ccccc2)nn1)N1CCOCC1 (stereo partly shown) [CBK288734]
  viability at 28.5 h, 10 µM: 113%

## COc1ccc(C)cc1S(=O)(=O)NCCO [CBK267881]
  viability at 28.5 h, 10 µM: 98.4%

## CC(C)(Cc1ccccc1)NCC(O)COc1ccc2c(c1)C1CCC2C1 (stereo not shown) [CBK018228C]
  viability at 28.5 h, 10 µM: 86.4%

## Cc1ccc2[nH]c(-c3cccc(NC(=O)c4cccc(CN5CCCC5=O)c4)c3)nc2c1 [CBK285838]
  viability at 28.5 h, 10 µM: 85.8%
